Assays:
[1] = target: T1, GPR173 (CHO-GPR173 cells) (Homo sapiens, UniProt Q9NS66); assay: Ca2+ imaging assay in CHO-GPR173 cells; assay type: cell-based
T1 construct: expressed in transfected cells; host or cells: CHO cells, lentiviral infection (pLVX-puro-GPCR), puromycin selection, monoclonal line
Description: CHO and infected CHO cells (CHO-GPCRs) were cultivated at 37°C in a humidified atmosphere with 5% CO2 in DMEM/F-12 medium (Thermo Fisher Scientific) supplemented with 10% FBS (Natocor Industria Biológica).
For Ca^2+ mobilization by a confocal microscope, ∼8 × 10^4 transfected cells were seeded in each well of an eight-well chambered cover glass (Thermo Fisher Scientific) the day before the Ca^2+ imaging assay. Then, 5 μM Fluo-8 (AAT Bioquest) dissolved in HHBS solution was incubated with the cells for 30 min in a cell incubator and 30 min at room temperature after removing the culture medium. These cells were washed three times with HHBS, and 360 µl HHBS was added. Subsequently, images of these cells were captured by a Zeiss 710 nonlinear optical confocal microscope before and after being treated with 10× compounds or HHBS solution.
Cells were cultured at 37°C, and 5% CO2 in DMEM/F-12 medium (Thermo Fisher Scientific) containing 10% FBS (Natocor Industria Biológica) and washed with DMEM/F-12 medium once after overnight incubation.

[2] = tested on: IPSCs of pyramidal neurons in auditory cortex (AC) brain slices; assay: In vitro patch-clamp recording of laser-evoked IPSCs in pyramidal neurons; settings: devazepide 60 nM in bath solution, brain slices from mDlx-DIO-ChR2-mCherry-injected CCK-Cre mice
Description: For brain slice recording experiments, we injected rAAV9-mDlx-DIO-ChR2-mCherry-WPRE-pA (5.18E + 12 vg/ml; BrainVTA) into the AC of CCK-Cre and PV-Cre mice.
In the in vivo brain slice recording experiments, we adopted a protective cutting and recovery method to prepare acute brain slices from CCK-Cre, PV-Cre, CCK-KO, and CCK1R/2R-KO mice to achieve a higher success rate for patch clamping, as previously described ([Chen et al., 2019]). […]
We performed whole-cell recordings with a MultiClamp 700B amplifier and Digital 1440A digitizer (Molecular Devices) targeting the AC in the brain slices in room temperature aCSF containing the following (in mM): 119 NaCl, 2.5 KCl, 1.25 NaH2PO4, 24 NaHCO3, 12.5 glucose, 2 CaCl2·4H2O, and 2 MgSO4·7H2O, ∼25°C). […] We recorded IPSCs in response to the laser stimulation (1 pulse per 15 s, 5 ms in duration) under voltage-clamp recording mode (holding at −60 mV to −50 mV) for 5 min as the baseline before and for 25 min after HFLS or LFLS. […] For the normalization of recorded IPSCs in the CCK-Cre, PV-Cre, CCK-KO, and CCK1R/2R-KO mice, we selected only patched neurons with IPSCs >35 pA.

CCK2R = assay: Cell surface binding assay, Flag-CCK2R; design: species or system human; settings: transfected HEK293T cells; HHBS with 20 mM HEPES, pH 7.4, 30 min, room temperature; anti-HA/anti-Flag immunofluorescence, confocal; n = 33-40 cells, three independent experiments
Description: (§1) We transfected HEK293T cells with pCDNA3.1(+)-Flag-GPCR (purchased from Public Protein/Plasmid Library or made in our laboratory based on a pCDNA3.1(+) backbone). […] After three washes with HHBS, cells were fixed in 4% paraformaldehyde (PFA) and 4% sucrose in PBS for 15 min at room temperature. Cells were blocked in 5% normal goat serum in PBS, and staining was performed in detergent-free conditions without cell permeabilization after three washes by PBS. We used primary antibody rabbit anti-HA (catalog #8146, Cell Signaling Technology), anti-GPR173 (catalog #PA5-50 976, Thermo Fisher Scientific), and mouse anti-Flag (catalog #3724, Cell Signaling Technology) to detect HA and Flag tags. Images were captured on a Leica SP8 confocal microscope. Images within each experiment were collected using identical laser power, offset, and gain.

GPR173 = assay: Cell surface binding assay, Flag-GPR173; design: species or system human; settings: transfected HEK293T cells; HHBS with 20 mM HEPES, pH 7.4, 30 min, room temperature; Fanti-HA/Fanti-Flag, confocal; n = 33-40 cells, three independent experiments
Description: as §1

HTR1B = assay: Cell surface binding assay, Flag-HTR1B; design: species or system human; settings: transfected HEK293T cells (negative/background control); HHBS pH 7.4, 30 min, room temperature; confocal
Description: as §1

T1 sequence (Q9NS66 whole entry): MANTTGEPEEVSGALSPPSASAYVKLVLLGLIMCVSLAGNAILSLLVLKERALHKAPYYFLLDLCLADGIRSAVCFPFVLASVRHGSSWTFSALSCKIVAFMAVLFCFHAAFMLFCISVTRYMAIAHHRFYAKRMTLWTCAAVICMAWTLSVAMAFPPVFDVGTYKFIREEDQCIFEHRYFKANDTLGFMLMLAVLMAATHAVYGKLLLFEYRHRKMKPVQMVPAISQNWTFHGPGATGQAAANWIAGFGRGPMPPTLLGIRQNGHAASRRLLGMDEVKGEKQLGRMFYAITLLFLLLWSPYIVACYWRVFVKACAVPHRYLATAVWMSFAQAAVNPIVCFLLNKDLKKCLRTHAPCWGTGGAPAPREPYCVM

## CN1C(=O)[C@@H](NC(=O)c2cc3ccccc3[nH]2)N=C(c2ccccc2)c2ccccc21 [devazepide]
[1]; CHO-GPR173, 10 nM CCK8s, compared with loxiglumide, YF476 and L365,260
  Antagonistic action on GPR173, rank: highest antagonistic action on GPR173
[1]; read-out: IC50, antagonism of CCK8s-induced Ca2+ response
  IC50: 12.3 nM
[2]
  Block of HFLS-induced potentiation of IPSCs: fully blocked the HFLS-induced potentiation of IPSCs

## HA-tagged CCK8ns: HA-(ε-Ahx)2-CCK variant probe of nonsulfated CCK8
CCK2R
  Binding to Flag-CCK2R (Fanti-HA/Fanti-Flag): significantly larger ratio of CCK ligand HA-tag signal to CCK2R Flag signal (Fanti-HA/Fanti-Flag) than that of the HA-(ε-Ahx)2 control group
GPR173
  Binding to Flag-GPR173: not HA-tagged CCK4 or CCK8ns
HTR1B
  Binding to Flag-HTR1B: No binding

## HA-tagged CCK8s: HA-(ε-Ahx)2-CCK variant probe of CCK8s
CCK2R
  Binding to Flag-CCK2R (Fanti-HA/Fanti-Flag): significantly larger ratio of CCK ligand HA-tag signal to CCK2R Flag signal (Fanti-HA/Fanti-Flag) than that of the HA-(ε-Ahx)2 control group
GPR173
  Binding to Flag-GPR173: could only bind to HA-tagged CCK8
HTR1B
  Binding to Flag-HTR1B: No binding

— article PMC10072296, “A Novel CCK Receptor GPR173 Mediates Potentiation of GABAergic Inhibition” (The Journal of Neuroscience, 2023)
